Measured values taken from ChEMBL document CHEMBL5303573, “Mapping human microbiome drug metabolism by gut bacteria and their genes” (Nature, 2019).

Key:
[1] = The drug is tested on Clostridium scindens strain: ATCC35704 for biotransformation. The drug concentrations were measured before and after a 12-h incubation by liquid-chromatography-coupled mass spectrometry (LC–MS); conditions: 2 µM
[2] = The drug is tested on Clostridium hathewayi strain: DSM13479 for biotransformation. The drug concentrations were measured before and after a 12-h incubation by liquid-chromatography-coupled mass spectrometry (LC–MS); conditions: hungatella hathewayi, 2 µM
[3] = The drug is tested on Clostridium asparagiforme strain: DSM15981 for biotransformation. The drug concentrations were measured before and after a 12-h incubation by liquid-chromatography-coupled mass spectrometry (LC–MS); format: ADME; set-up: dose 2 uM, timepoint 0 vs 12 hours; conditions: enterocloster asparagiformis, 2 µM
[4] = The drug is tested on Clostridium ramosum strain: DSM1402 for biotransformation. The drug concentrations were measured before and after a 12-h incubation by liquid-chromatography-coupled mass spectrometry (LC–MS); conditions: thomasclavelia ramosa, 2 µM
[5] = The drug is tested on Clostridium symbiosum strain: ATCC14940 for biotransformation. The drug concentrations were measured before and after a 12-h incubation by liquid-chromatography-coupled mass spectrometry (LC–MS); conditions: 2 µM
[6] = The drug is tested on Clostridium spiroforme strain: DSM1552 for biotransformation. The drug concentrations were measured before and after a 12-h incubation by liquid-chromatography-coupled mass spectrometry (LC–MS); conditions: thomasclavelia spiroformis, 2 µM
[7] = The drug is tested on Clostridium sporogenes strain: ATCC15579 for biotransformation. The drug concentrations were measured before and after a 12-h incubation by liquid-chromatography-coupled mass spectrometry (LC–MS); conditions: 2 µM
[8] = enterocloster bolteae, 12 h, 2 µM
[9] = clostridioides difficile, 12 h, 2 µM
[10] = The drug is tested on Blautia hansenii strain: DSM20583 for biotransformation. The drug concentrations were measured before and after a 12-h incubation by liquid-chromatography-coupled mass spectrometry (LC–MS); conditions: 2 µM
[11] = The drug is tested on Bacteroides ovatus strain: ATCC8483 for biotransformation. The drug concentrations were measured before and after a 12-h incubation by liquid-chromatography-coupled mass spectrometry (LC–MS); conditions: 2 µM
[12] = The drug is tested on Providencia stuartii strain: ATCC25827 for biotransformation. The drug concentrations were measured before and after a 12-h incubation by liquid-chromatography-coupled mass spectrometry (LC–MS); conditions: 2 µM
[13] = The drug is tested on Ruminococcus lactaris strain: ATCC29176 for biotransformation. The drug concentrations were measured before and after a 12-h incubation by liquid-chromatography-coupled mass spectrometry (LC–MS); conditions: 2 µM
[14] = The drug is tested on Ruminococcus gnavus strain: ATCC29149 for biotransformation. The drug concentrations were measured before and after a 12-h incubation by liquid-chromatography-coupled mass spectrometry (LC–MS); conditions: mediterraneibacter gnavus, 2 µM
[15] = The drug is tested on Bacteroides finegoldii strain: DSM17565 for biotransformation. The drug concentrations were measured before and after a 12-h incubation by liquid-chromatography-coupled mass spectrometry (LC–MS); conditions: 2 µM
[16] = The drug is tested on Coprococcus comes strain: ATCC27758 for biotransformation. The drug concentrations were measured before and after a 12-h incubation by liquid-chromatography-coupled mass spectrometry (LC–MS); format: ADME; set-up: dose 2 uM, timepoint 0 vs 12 hours; conditions: 2 µM
[17] = The drug is tested on Enterococcus faecalis strain: V583 for biotransformation. The drug concentrations were measured before and after a 12-h incubation by liquid-chromatography-coupled mass spectrometry (LC–MS); conditions: 2 µM
[18] = The drug is tested on Anaerotruncus colihominis strain: DSM17241 for biotransformation. The drug concentrations were measured before and after a 12-h incubation by liquid-chromatography-coupled mass spectrometry (LC–MS); conditions: 2 µM
[19] = The drug is tested on Bacteroides uniformis strain: ATCC8492 for biotransformation. The drug concentrations were measured before and after a 12-h incubation by liquid-chromatography-coupled mass spectrometry (LC–MS); conditions: 2 µM
[20] = The drug is tested on Salmonella typhimurium strain: LT2 for biotransformation. The drug concentrations were measured before and after a 12-h incubation by liquid-chromatography-coupled mass spectrometry (LC–MS); conditions: salmonella enterica subsp. enterica, 2 µM
[21] = The drug is tested on Clostridium sp. strain: fecal isolate for biotransformation. The drug concentrations were measured before and after a 12-h incubation by liquid-chromatography-coupled mass spectrometry (LC–MS); conditions: 2 µM
[22] = The drug is tested on Bacteroides fragilis strain: HMW610 for biotransformation. The drug concentrations were measured before and after a 12-h incubation by liquid-chromatography-coupled mass spectrometry (LC–MS); conditions: 2 µM
[23] = The drug is tested on Bacteroides fragilis strain: HMW615 for biotransformation. The drug concentrations were measured before and after a 12-h incubation by liquid-chromatography-coupled mass spectrometry (LC–MS); conditions: 2 µM
[24] = bacteroides intestinalis, 12 h, 2 µM
Description: The drug is tested on Bacteroides intestinalis strain: DSM17393 for biotransformation. The drug concentrations were measured before and after a 12-h incubation by liquid-chromatography-coupled mass spectrometry (LC–MS)

[25] = akkermansia muciniphila, 12 h, 2 µM
Description: The drug is tested on Akkermansia muciniphila strain: ATCC BAA-835 for biotransformation. The drug concentrations were measured before and after a 12-h incubation by liquid-chromatography-coupled mass spectrometry (LC–MS)

[26] = The drug is tested on Eggerthella lenta strain: ATCC25559 for biotransformation. The drug concentrations were measured before and after a 12-h incubation by liquid-chromatography-coupled mass spectrometry (LC–MS); conditions: 2 µM
[27] = The drug is tested on Bacteroides dorei strain: DSM17855 for biotransformation. The drug concentrations were measured before and after a 12-h incubation by liquid-chromatography-coupled mass spectrometry (LC–MS); conditions: phocaeicola dorei, 2 µM
[28] = bacteroides fragilis, 12 h, 2 µM
Description: The drug is tested on Bacteroides fragilis strain: DS-208 for biotransformation. The drug concentrations were measured before and after a 12-h incubation by liquid-chromatography-coupled mass spectrometry (LC–MS)

[29] = bacteroides thetaiotaomicron, 12 h, 2 µM
Description: The drug is tested on Bacteroides thetaiotaomicron strain: 3731 for biotransformation. The drug concentrations were measured before and after a 12-h incubation by liquid-chromatography-coupled mass spectrometry (LC–MS)

[30] = The drug is tested on Eubacterium hallii strain: DSM3353 for biotransformation. The drug concentrations were measured before and after a 12-h incubation by liquid-chromatography-coupled mass spectrometry (LC–MS); conditions: anaerobutyricum hallii, 2 µM
[31] = bacteroides fragilis, 12 h, 2 µM; remark: listed apart in the source
Description: The drug is tested on Bacteroides fragilis strain: 3397 (T10) for biotransformation. The drug concentrations were measured before and after a 12-h incubation by liquid-chromatography-coupled mass spectrometry (LC–MS)

[32] = The drug is tested on Enterobacter cancerogenus strain: ATCC35316 for biotransformation. The drug concentrations were measured before and after a 12-h incubation by liquid-chromatography-coupled mass spectrometry (LC–MS); conditions: 2 µM
[33] = The drug is tested on Collinsella aerofaciens strain: ATCC25986 for biotransformation. The drug concentrations were measured before and after a 12-h incubation by liquid-chromatography-coupled mass spectrometry (LC–MS); conditions: 2 µM
[34] = The drug is tested on Bacteroides pectinophilus strain: ATCC43243 for biotransformation. The drug concentrations were measured before and after a 12-h incubation by liquid-chromatography-coupled mass spectrometry (LC–MS); conditions: 2 µM
[35] = The drug is tested on Bifidobacterium ruminantium strain: fecal isolate for biotransformation. The drug concentrations were measured before and after a 12-h incubation by liquid-chromatography-coupled mass spectrometry (LC–MS); conditions: 2 µM
[36] = The drug is tested on Edwardsiella tarda strain: ATCC23685 for biotransformation. The drug concentrations were measured before and after a 12-h incubation by liquid-chromatography-coupled mass spectrometry (LC–MS); conditions: 2 µM
[37] = bacteroides thetaiotaomicron, 12 h, 2 µM; remark: listed apart in the source
Description: The drug is tested on Bacteroides thetaiotaomicron strain: 7330 for biotransformation. The drug concentrations were measured before and after a 12-h incubation by liquid-chromatography-coupled mass spectrometry (LC–MS)

[38] = The drug is tested on Eubacterium ventriosum strain: ATCC27560 for biotransformation. The drug concentrations were measured before and after a 12-h incubation by liquid-chromatography-coupled mass spectrometry (LC–MS); format: ADME; set-up: dose 2 uM, timepoint 0 vs 12 hours; conditions: 2 µM
[39] = The drug is tested on Bacteroides fragilis strain: ATCC43859 for biotransformation. The drug concentrations were measured before and after a 12-h incubation by liquid-chromatography-coupled mass spectrometry (LC–MS); conditions: 2 µM
[40] = bacteroides eggerthii, 12 h, 2 µM
Description: The drug is tested on Bacteroides eggerthii strain: DSM20697 for biotransformation. The drug concentrations were measured before and after a 12-h incubation by liquid-chromatography-coupled mass spectrometry (LC–MS)

[41] = The drug is tested on Subdoligranulum variabile strain: DSM15176 for biotransformation. The drug concentrations were measured before and after a 12-h incubation by liquid-chromatography-coupled mass spectrometry (LC–MS); conditions: 2 µM
[42] = The drug is tested on Bifidobacterium longum subsp. Infantis strain: CCUG52486 for biotransformation. The drug concentrations were measured before and after a 12-h incubation by liquid-chromatography-coupled mass spectrometry (LC–MS); conditions: 2 µM
[43] = The drug is tested on Escherichia coli strain: BW25113 for biotransformation. The drug concentrations were measured before and after a 12-h incubation by liquid-chromatography-coupled mass spectrometry (LC–MS); conditions: 2 µM
[44] = The drug is tested on Bacteroides xylanisolvens strain: DSM18836 for biotransformation. The drug concentrations were measured before and after a 12-h incubation by liquid-chromatography-coupled mass spectrometry (LC–MS); conditions: 2 µM
[45] = The drug is tested on Ruminococcus torques strain: ATCC27756 for biotransformation. The drug concentrations were measured before and after a 12-h incubation by liquid-chromatography-coupled mass spectrometry (LC–MS); format: ADME; set-up: dose 2 uM, timepoint 0 vs 12 hours; conditions: 2 µM
[46] = The drug is tested on Bacteroides sp. WH2 strain: WH2 for biotransformation. The drug concentrations were measured before and after a 12-h incubation by liquid-chromatography-coupled mass spectrometry (LC–MS); conditions: bacteroides sp. wh2, 12 h, 2 µM
[47] = The drug is tested on Bacteroides caccae strain: ATCC43185 for biotransformation. The drug concentrations were measured before and after a 12-h incubation by liquid-chromatography-coupled mass spectrometry (LC–MS); conditions: 2 µM
[48] = parabacteroides johnsonii, 12 h, 2 µM
Description: The drug is tested on Parabacteroides johnsonii strain: DSM18315 for biotransformation. The drug concentrations were measured before and after a 12-h incubation by liquid-chromatography-coupled mass spectrometry (LC–MS)

[49] = bacteroides thetaiotaomicron, 12 h, 2 µM; remark: listed apart in the source
Description: The drug is tested on Bacteroides thetaiotaomicron strain: VPI-5482 for biotransformation. The drug concentrations were measured before and after a 12-h incubation by liquid-chromatography-coupled mass spectrometry (LC–MS)

[50] = The drug is tested on Collinsella intestinalis strain: DSM13280 for biotransformation. The drug concentrations were measured before and after a 12-h incubation by liquid-chromatography-coupled mass spectrometry (LC–MS); conditions: 2 µM
[51] = The drug is tested on Alistipes indistinctus strain: DSM22520 for biotransformation. The drug concentrations were measured before and after a 12-h incubation by liquid-chromatography-coupled mass spectrometry (LC–MS); conditions: 2 µM
[52] = bacteroides stercoris, 12 h, 2 µM
Description: The drug is tested on Bacteroides stercoris strain: ATCC43183 for biotransformation. The drug concentrations were measured before and after a 12-h incubation by liquid-chromatography-coupled mass spectrometry (LC–MS)

In the case of Br.NC(=O)C(c1ccccc1)(c1ccccc1)[C@@H]1CCN(CCc2ccc3c(c2)CCO3)C1 [DARIFENACIN HYDROBROMIDE], the “Bacterial Biotransformation” value [1] is reported as “Compound NOT metabolized”, the “Bacterial Biotransformation” value [2] is reported as “Compound NOT metabolized” and the “Bacterial Biotransformation” value [3] is reported as “Compound NOT metabolized”. The “Bacterial Biotransformation” value [4] was “Compound NOT metabolized”, the “Bacterial Biotransformation” value [5] was “Compound NOT metabolized” and the “Bacterial Biotransformation” value [6] was “Compound NOT metabolized”. For the same compound, the “Bacterial Biotransformation” value [7] was “Compound NOT metabolized”, the “Bacterial Biotransformation” value [8] was “Compound NOT metabolized” and the “Bacterial Biotransformation” value [9] was “Compound NOT metabolized”.
For COC(=O)C(c1ccccc1)C1CCCCN1 (centres undefined) [METHYLPHENIDATE], the “Bacterial Biotransformation” value [10] was “Compound metabolized”, the “Bacterial Biotransformation” value [11] was “Compound NOT metabolized” and the “Bacterial Biotransformation” value [12] was “Compound NOT metabolized”. For the same compound, the “Bacterial Biotransformation” value [13] was “Compound NOT metabolized”, the “Bacterial Biotransformation” value [14] was “Compound NOT metabolized” and the “Bacterial Biotransformation” value [15] was “Compound NOT metabolized”. For the same compound, the “Bacterial Biotransformation” value [16] was “Compound NOT metabolized”, the “Bacterial Biotransformation” value [17] was “Compound NOT metabolized” and the “Bacterial Biotransformation” value [18] was “Compound NOT metabolized”. For the same compound, the “Bacterial Biotransformation” value [19] was “Compound NOT metabolized”, the “Bacterial Biotransformation” value [20] was “Compound NOT metabolized” and the “Bacterial Biotransformation” value [21] was “Compound metabolized”. The “Bacterial Biotransformation” value [22] was “Compound NOT metabolized”, the “Bacterial Biotransformation” value [23] was “Compound NOT metabolized” and the “Bacterial Biotransformation” value [24] was “Compound NOT metabolized”. For the same compound, the “Bacterial Biotransformation” value [25] was “Compound NOT metabolized”, the “Bacterial Biotransformation” value [26] was “Compound metabolized” and the “Bacterial Biotransformation” value [27] was “Compound NOT metabolized”. For the same compound, the “Bacterial Biotransformation” value [28] was “Compound NOT metabolized”, the “Bacterial Biotransformation” value [29] was “Compound NOT metabolized” and the “Bacterial Biotransformation” value [7] was “Compound metabolized”. The “Bacterial Biotransformation” value [30] was “Compound NOT metabolized”, the “Bacterial Biotransformation” value [31] was “Compound NOT metabolized” and the “Bacterial Biotransformation” value [32] was “Compound NOT metabolized”. The “Bacterial Biotransformation” value [33] was “Compound NOT metabolized”, the “Bacterial Biotransformation” value [34] was “Compound NOT metabolized” and the “Bacterial Biotransformation” value [35] was “Compound metabolized”. The “Bacterial Biotransformation” value [36] was “Compound NOT metabolized”, the “Bacterial Biotransformation” value [37] was “Compound NOT metabolized” and the “Bacterial Biotransformation” value [38] was “Compound NOT metabolized”. For the same compound, the “Bacterial Biotransformation” value [8] was “Compound NOT metabolized”, the “Bacterial Biotransformation” value [39] was “Compound NOT metabolized” and the “Bacterial Biotransformation” value [40] was “Compound NOT metabolized”. For the same compound, the “Bacterial Biotransformation” value [41] was “Compound NOT metabolized”, the “Bacterial Biotransformation” value [42] was “Compound NOT metabolized” and the “Bacterial Biotransformation” value [43] was “Compound metabolized”. The “Bacterial Biotransformation” value [44] was “Compound NOT metabolized”, the “Bacterial Biotransformation” value [45] was “Compound NOT metabolized” and the “Bacterial Biotransformation” value [46] was “Compound NOT metabolized”. The “Bacterial Biotransformation” value [47] was “Compound NOT metabolized”, the “Bacterial Biotransformation” value [48] was “Compound metabolized” and the “Bacterial Biotransformation” value [49] was “Compound NOT metabolized”. The “Bacterial Biotransformation” value [50] was “Compound NOT metabolized”, the “Bacterial Biotransformation” value [51] was “Compound NOT metabolized” and the “Bacterial Biotransformation” value [52] was “Compound NOT metabolized”.
